# Assay results from patent US8058242B2, “Chimeric proteins with natriuretic activity” (The University of Queensland, priority 2004, dated 2011).
# Positions of bridges follow the written chain, without caps; N, C: chain ends. Residues, ends and D or L forms follow the SMILES beside them.
# Legend:
# [1] = system: endothelium-intact aortic rings (NPR-C mediated); experiment: Aortic ring relaxation, endothelium-intact rings pre-contracted with 40 mM KCl (Example 3); set-up: species or system rat
# Procedure: (§1) Male Sprague Dawley rats were killed and the descending thoracic aorta rapidly removed and flushed with physiological solution. After being cleared of adhering fat and connective tissue, 5 mm rings were mounted under 10 g resting tension, between two stainless steel hooks, in organ baths (37° C.) containing carbogenated (95% O2 and 5% CO2) physiological salt solution of the following composition (mM): NaCl, 118.4; NaHCO3, 25; glucose, 11; KCl, 4.7; MgSO4, 1.2; KH2PO4, 1.2 and CaCl2, 2.5. The lower hook was attached to a tissue holder and the upper hook to a force displacement transducer (Grass FTO3). Where indicated endothelial cells were removed by gentle rubbing of the intimal surface with a wire. To confirm the presence or absence of endothelial cells, tissues were precontracted with a sub-maximal concentration of phenylephrine (0.3 μM) and the response to acetylcholine (ACh, 10 μM) observed. Ach-induced relaxation greater than 80% of maximum indicated the presence of endothelium; whereas Ach-induced relaxation less than 10% indicated the absence of endothelium. Ring preparations under resting tension were conditioned by two contraction/relaxation cycles with 40 mM KCl, contracted by a third application of 40 mM KCl and then relaxed with different doses of the venom peptides. Responses were expressed as a percentage relaxation of the precontraction by KCl.
# [2] = system: endothelium-denuded aortic rings (GC-A mediated); experiment: Aortic ring relaxation, endothelium-denuded rings pre-contracted with 40 mM KCl (Example 3); set-up: species or system rat
# Procedure: as §1
# [3] = target: T1, rat GC-A (Rattus norvegicus, UniProt P18910); experiment: Cell cyclic GMP elevations in HEK-293 cells stably expressing rat GC-A (Example 4); format: cell-based; settings: 0.1 μM; 293 cells over-expressing GC-A
# T1 construct: expressed in transfected cells
# T1 sequence (P18910 29-1057): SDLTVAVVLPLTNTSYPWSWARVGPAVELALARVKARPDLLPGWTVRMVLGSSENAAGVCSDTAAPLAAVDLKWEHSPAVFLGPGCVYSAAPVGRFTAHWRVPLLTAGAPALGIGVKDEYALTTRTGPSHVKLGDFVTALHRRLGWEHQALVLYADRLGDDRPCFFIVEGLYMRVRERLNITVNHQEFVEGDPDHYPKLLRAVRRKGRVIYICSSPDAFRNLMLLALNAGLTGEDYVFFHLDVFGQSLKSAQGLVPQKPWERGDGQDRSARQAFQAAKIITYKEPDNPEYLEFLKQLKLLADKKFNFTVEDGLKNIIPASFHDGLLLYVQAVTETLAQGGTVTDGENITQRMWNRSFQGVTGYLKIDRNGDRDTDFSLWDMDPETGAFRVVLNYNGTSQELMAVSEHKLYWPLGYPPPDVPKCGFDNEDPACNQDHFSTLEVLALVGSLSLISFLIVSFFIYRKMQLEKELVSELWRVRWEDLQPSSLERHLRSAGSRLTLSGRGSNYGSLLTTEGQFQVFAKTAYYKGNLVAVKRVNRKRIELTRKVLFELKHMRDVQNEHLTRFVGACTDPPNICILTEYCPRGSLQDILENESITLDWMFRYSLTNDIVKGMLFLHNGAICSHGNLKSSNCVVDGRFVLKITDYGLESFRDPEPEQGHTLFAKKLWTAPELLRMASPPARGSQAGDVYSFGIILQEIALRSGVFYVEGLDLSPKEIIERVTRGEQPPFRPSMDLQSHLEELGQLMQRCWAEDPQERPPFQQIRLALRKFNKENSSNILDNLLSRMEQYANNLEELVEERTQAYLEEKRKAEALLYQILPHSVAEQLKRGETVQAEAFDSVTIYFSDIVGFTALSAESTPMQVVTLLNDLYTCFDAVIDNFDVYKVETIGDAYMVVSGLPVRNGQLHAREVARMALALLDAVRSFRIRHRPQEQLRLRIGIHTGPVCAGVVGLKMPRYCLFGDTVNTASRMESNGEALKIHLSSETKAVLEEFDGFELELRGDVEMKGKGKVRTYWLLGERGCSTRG
# Source text: The human embryonic kidney 293 (HEK-293) cell line was used for the stable expression of rat GC-A (GC-A/293). Cells expressing rat GC-A (GC-A/293) in the HEK-293 cell line were as previously described (Potter L. R., and Garbers D. L., (1992), J Biol Chem. 26, 14531-4) and determination of cGMP elevations was undertaken as previously described (Chrisman et al. T. D., Schulz, S., Potter, L. R. and Garbers, D. L., (1993,) J. Biol. Chem. (1993) 268 (5), 3698-3703). Responses were expressed as a percentage of the effect produced by ANP.
# [4] = system: conscious rabbits; experiment: Blood pressure and heart rate in conscious rabbits, intravenous infusion dose-response (Example 8); settings: for Diastolic BP, mean difference from control / HR, mean difference from control / Mean BP, mean difference from control / Systolic BP, mean difference from control: 45 min
# [5] = target: T2, NPR-A signaling in HeLa cells (Homo sapiens, UniProt P16066); experiment: cGMP AlphaScreen assay in HeLa cells (Examples 14, 15); format: cell-based; settings: −Log10EC50 (pEC50) ± Standard Error, cGMP accumulation in HeLa cells, 30 minutes at 37° C.
# T2 construct: Cyclic GMP (cGMP) elevation in HeLa cells in response to Natriuretic Peptide stimulation; endogenous in cells; host or cells: HeLa cells
# T2 sequence (P16066 33-1061): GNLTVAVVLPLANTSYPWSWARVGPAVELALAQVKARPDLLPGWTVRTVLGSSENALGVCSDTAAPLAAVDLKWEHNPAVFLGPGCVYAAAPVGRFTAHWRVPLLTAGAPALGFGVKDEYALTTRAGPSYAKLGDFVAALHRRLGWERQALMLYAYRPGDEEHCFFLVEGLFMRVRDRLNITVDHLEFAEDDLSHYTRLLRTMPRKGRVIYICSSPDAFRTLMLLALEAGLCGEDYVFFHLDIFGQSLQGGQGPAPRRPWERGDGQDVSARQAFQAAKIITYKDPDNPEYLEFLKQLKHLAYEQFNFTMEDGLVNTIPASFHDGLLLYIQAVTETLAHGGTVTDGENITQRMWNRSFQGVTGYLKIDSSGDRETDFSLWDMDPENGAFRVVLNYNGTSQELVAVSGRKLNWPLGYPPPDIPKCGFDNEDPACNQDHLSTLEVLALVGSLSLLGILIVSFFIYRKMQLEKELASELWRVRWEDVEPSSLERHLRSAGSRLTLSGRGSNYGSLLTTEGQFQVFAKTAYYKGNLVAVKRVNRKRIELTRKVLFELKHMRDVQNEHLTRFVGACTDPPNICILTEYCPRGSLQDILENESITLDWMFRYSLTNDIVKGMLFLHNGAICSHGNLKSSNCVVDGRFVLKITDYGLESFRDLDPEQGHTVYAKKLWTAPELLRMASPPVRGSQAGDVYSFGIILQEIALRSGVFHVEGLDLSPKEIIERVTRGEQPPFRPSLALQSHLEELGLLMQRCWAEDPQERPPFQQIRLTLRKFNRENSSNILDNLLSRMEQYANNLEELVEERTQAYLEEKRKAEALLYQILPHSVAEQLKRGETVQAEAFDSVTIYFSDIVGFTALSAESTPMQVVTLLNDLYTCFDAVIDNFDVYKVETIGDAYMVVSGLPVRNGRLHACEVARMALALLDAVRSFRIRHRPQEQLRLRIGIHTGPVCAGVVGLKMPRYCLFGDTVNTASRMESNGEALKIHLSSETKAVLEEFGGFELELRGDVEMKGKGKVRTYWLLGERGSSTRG
# Procedure: HeLa cells were maintained in RPMI cell culture medium (Gihco Invitrogen, Mt Waverley, Australia) supplemented with 10% Foetal Bovine Serum (Cambrex Bio Science, Rockland, USA). Upon reaching confluence, cells were sub-cultured such that they would be 70-90% confluent at time of assay.
# Cyclic GMP (cGMP) elevation in HeLa cells in response to Natriuretic Peptide stimulation was performed using a cGMP AlphaScreen kit (PerkinElmer, Boston, USA), as follows for normal experiments: Cells were detached, pelleted to remove growth medium, and resuspended in Stimulation Buffer (Hank's Balanced Salt Solution, 0.1% Bovine Serum Albumin [BSA] (Sigma-Aldrich, Castle Hill, Australia), 1 mM 3-Isobutyl-1-methylxanthine [IBMX] (Sigma-Aldrich, Castle Hill, Australia)) and diluted to 6×10^6 cells per mL (30 000 cells per 5 μL). 5 μL of cells were added to wells of white 384-well OptiPlates (PerkinElmer, Boston, USA), and stimulated with increasing concentrations of peptide for 30 minutes at 37° C. Cells were then lysed with 10 μL Lysis buffer (dH2O, 0.3% Tween-20 (Sigma-Aldrich, Castle Hill, Australia), 5 mM HEPES (JRH Biosciences, Kansas, USA) and 0.1% BSA) and 5 μL acceptor bead mix (10 μL per mL acceptor beads and 1/3000 anti-cGMP antibody (BioVision, Mountain View, USA) in lysis buffer) added per well in the dark. Plates were incubated in the dark at room temperature for 30 minutes, then 5 μL donor bead mix (10 μL per ML donor beads and 0.3 nM biotinylated cGMP in lysis buffer) was added per well in the dark and the plate incubated overnight at room temperature. Signal was read using an EnVision plate reader (PerkinElmer, Boston, USA) and data analysed using Prism software. The cGMP standard curve was performed as per manufacturer's instructions.
# To examine whether TNPc and synthetic analogs produced in the inventors' laboratory could stimulate NPR-A signaling, cGMP elevations in HeLa cells in response to these peptides were measured, as described above.
# [6] = system: conscious normotensive rabbits; experiment: Blood pressure and heart rate in conscious normotensive rabbits, intravenous bolus of TDT analogs (Example 17); settings: i.v. bolus 0.24 mg/kg
# [7] = after 1 hour recovery period, Table 10A
# [8] = average of the 3 doses 1.0, 2.0, 4.0 μg/kg/min
molecule,measurement,setting,value
SDPKIGDGCFGLPLDHIGSVSGLGCNRPVQNRPKK (A portion of a natriuretic peptide) [TNPb],competitive inhibition of the binding of TNPc,"[1]; endothelium-intact aortic rings, TNPa or TNPb followed by TNPc 0.1 μM",lack the ability to competitively inhibit the binding of TNPc
same,percentage relaxation of the precontraction by KCl,"[1]; endothelium-intact rat aortas pre-contracted with 40 mM KCl, peptide 0.1 μM",approximately 20%
same,competitive inhibition of the binding of TNPc,"[2]; endothelium-denuded aortic rings, TNPa or TNPb followed by TNPc 0.1 μM",lack the ability to competitively inhibit the binding of TNPc
same,percentage relaxation of the precontraction by KCl,"[2]; endothelium-denuded rat aortas pre-contracted with 40 mM KCl, peptide 0.1 μM",no relaxation
same,"cGMP elevations, percentage of the effect produced by ANP",[3],lesser effects on cGMP elevations
same,Recovery (MAP),[4]; [7],68.2 mm Hg
same,Recovery Delta SED (MAP),[4]; [7],3.5 ± 2.3 mm Hg
same,"Diastolic BP, Average Response SED",[4]; [8],−7.8 ± 0.9 mmHg
same,"HR, Average Response SED",[4]; [8],−1.4 ± 3.5 bpm
same,"Mean BP (MAP), Average Response SED",[4]; [8],−9.6 ± 1.1 mmHg
same,"Systolic BP, Average Response SED",[4]; [8],−8.9 ± 1.4 mmHg
same,MAP at final dose,"[4]; highest dose, Table 10A",64.7 mm Hg
same,"Treatment Effect, change of mean blood pressure during the infusion","[4]; highest dose, Table 10A, groups 1, 2A and 3",−11.0 mm Hg
same,"Diastolic BP, mean difference from control",[4]; i.v. infusion 1.0 μg/kg/min,−7.0 mmHg
same,"HR, mean difference from control",[4]; i.v. infusion 1.0 μg/kg/min,−3.9 bpm
same,"Mean BP, mean difference from control",[4]; i.v. infusion 1.0 μg/kg/min,−8.0 mmHg
same,"Systolic BP, mean difference from control",[4]; i.v. infusion 1.0 μg/kg/min,−7.9 mmHg
same,"Diastolic BP, mean difference from control",[4]; i.v. infusion 2.0 μg/kg/min,−7.9 mmHg
same,"HR, mean difference from control",[4]; i.v. infusion 2.0 μg/kg/min,−5.1 bpm
same,"Mean BP, mean difference from control",[4]; i.v. infusion 2.0 μg/kg/min,−9.8 mmHg
same,"Systolic BP, mean difference from control",[4]; i.v. infusion 2.0 μg/kg/min,−8.8 mmHg
same,"Diastolic BP, mean difference from control",[4]; i.v. infusion 4.0 μg/kg/min,−8.6 mmHg
same,"HR, mean difference from control",[4]; i.v. infusion 4.0 μg/kg/min,4.7 bpm
same,"Mean BP, mean difference from control",[4]; i.v. infusion 4.0 μg/kg/min,−11.0 mmHg
same,"Systolic BP, mean difference from control",[4]; i.v. infusion 4.0 μg/kg/min,−10.0 mmHg
CC[C@H](C)[C@H](NC(=O)[C@H](CCCCN)NC(=O)[C@H](CO)NC(=O)[C@H](CC(=O)O)NC(=O)[C@@H](N)CO)C(=O)NCC(=O)N[C@@H](CC(N)=O)C(=O)NCC(=O)N[C@H]1CSSC[C@@H](C(=O)N[C@@H](CC(N)=O)C(=O)N[C@@H](CCCNC(=N)N)C(=O)N[C@H](C(=O)N[C@@H](CCSC)C(=O)N[C@@H](CCC(N)=O)C(=O)N[C@@H](CC(N)=O)C(=O)N2CCC[C@H]2C(=O)N2CCC[C@H]2C(=O)N[C@@H](CCCCN)C(=O)N[C@@H](CCCCN)C(=O)N[C@@H](Cc2ccccc2)C(=O)N[C@@H](CO)C(=O)NCC(=O)N[C@@H](CCC(=O)O)C(=O)O)[C@@H](C)CC)NC(=O)CNC(=O)[C@H](CC(C)C)NC(=O)CNC(=O)[C@H](CO)NC(=O)[C@H](C(C)C)NC(=O)[C@H](Cc2c[nH]cn2)NC(=O)[C@H](CC(N)=O)NC(=O)[C@H]([C@@H](C)CC)NC(=O)[C@H](CCCNC(=N)N)NC(=O)[C@H](CC(=O)O)NC(=O)[C@H]([C@@H](C)CC)NC(=O)[C@H](CCCCN)NC(=O)[C@H](Cc2c[nH]cn2)NC(=O)CNC(=O)[C@H](Cc2ccccc2)NC1=O [N22G-TDT] (H-SDSKIGNGCFGHKIDRINHVSGLGCNRIMQNPPKKFSGE-OH; disulfide 9-25),EC50,[5],3.14 nM
same,"HR, mean difference from control",[6],little effect on HR
same,"time after administration at which the MAP effect occurred, on average",[6],140 min
same,"MAP, mean difference from control",[6]; at MAP minimum,−17.4±7.6 mmHg
